Measured values from patent US5208344A, “Naphthalenepropionic acid derivatives as anti-inflammatory/antiallergic agents” (American Home Products Corporation, priority 1991, dated 1993).
Where two headings read alike, the source gives them in different places. Values belong to the molecule of their own block, whether it stands above or below them.

How the values were obtained:
[1] = system: inflammatory mediator release; test: reverse passive Arthus pleurisy assay, inflammatory mediator release; format: in vivo, rat; settings: rat; for ED50: Rattus norvegicus, po
Description: (§1) The compounds of the invention are further tested in the reverse passive Arthus pleurisy assay to evaluate their effectiveness in inflammatory mediator release and/or the fluid and cellular phases of an inflammatory response.
A reverse passive Arthus reaction is induced in the pleural cavity of male Lewis rats (150-200 g; fasted overnight prior to use) by the intravenous administration of bovine serum albumin (BSA; 4 mg/0.2 ml) followed 30 minutes later by the injection of rabbit anti-BSA (1 mg/0.2 ml; lyophilized IgG fraction; Organon Teknika, West Chester, PA) into the right pleural space under halothane anesthesia. […] Animals are sacrificed at either the time of peak eicosanoid production (i.e. 5 minutes after anti-BSA for immunoreactive TxB2, 10 minutes for immunoreactive LTB4, 20 minutes for immunoreactive LTC4) or at the time of peak neutrophil infiltration (4 hours after anti-BSA) by CO2 inhalation. The pleural cavity is then exposed, the fluid exudate removed by gentle vacuum aspiration and the volume of exudate is recorded. For the determination of cellular infiltration, the pleural cavity is rinsed with 3 ml of 0.1% EDTA in sterile saline, and the recovered wash is pooled with the exudate. Cell number is determined on a model ZBI Coulter counter. For determination of eicosanoid production, undiluted pleural exudate is microfuged and the supernatant is extracted with ethanol (8-10 times volume). Extracts are either stored at -20° C., or are evaporated to dryness under a stream of N2 and reconstituted in radioimmunoassay (RIA) buffer.
Eicosanoids are quantitated by RIA according to the procedure specified by the RIA kit manufacturer (Advanced Magnetics, Cambridge, MA). Briefly, 100 μl of ^3 H-labeled eicosanoid and 100 μl of specific antibody are sequentially added to 100 μl of extracted pleural exudate in BGG-phosphate buffer which contains 0.01 M phosphate, 0.1% bovine gamma globulin and 0.1% sodium azide at pH 7.0. Antibody-bound eicosanoid is separated form unbound eicosanoid by the addition of 750 μl of dextran (0.4%)-coated charcoal (0.4% Norit A) containing 0.1% sodium azide. The mixture is centrifuged at 2000 RPM at 5° C. for 15 minutes to pellet the charcoal and adsorbed unbound eicosanoid. Antibody-bound labeled eicosanoid is quantitated by counting in a liquid scintillation counter, and is correlated to concentration by a standard curve.
(§2) Inflammatory cells are expressed as 10^6 cells/ml, pleural exudate is expressed as ml of fluid, and the amount of eicosanoids in the pleural cavity is expressed as ng/ml of exudate. Mean±S.E.M. is determined for each group. Percent inhibition (% I) of cell number, exudate volume and eicosanoid production is calculated for vehicle-treated control groups, and the responses in drug-treated rats are then expressed as the mean $ I of control.

[2] = system: pleural inflammation; test: reverse passive Arthus pleurisy assay, pleural inflammation; format: in vivo; settings: rat; for ED30: po, 4 h; for ED30 / ED30 Fluid Exudation: p.o.
Description: as §1
A reverse passive Arthus reaction is induced in the pleural cavity of male Lewis rats (150-200 g; fasted overnight prior to use) by the intravenous administration of bovine serum albumin (BSA; 4 mg/0.2 ml) followed 30 minutes later by the injection of rabbit anti-BSA (1 mg/0.2 ml; lyophilized IgG fraction; Organon Teknika, West Chester, PA) into the right pleural space under halothane anesthesia. Drugs or vehicle (0.5% Tween-80) control are administered orally in a volume of 1 ml/100 g body weight at 1 hour prior to the anti-BSA. Animals are sacrificed at either the time of peak eicosanoid production (i.e. 5 minutes after anti-BSA for immunoreactive TxB2, 10 minutes for immunoreactive LTB4, 20 minutes for immunoreactive LTC4) or at the time of peak neutrophil infiltration (4 hours after anti-BSA) by CO2 inhalation. The pleural cavity is then exposed, the fluid exudate removed by gentle vacuum aspiration and the volume of exudate is recorded. For the determination of cellular infiltration, the pleural cavity is rinsed with 3 ml of 0.1% EDTA in sterile saline, and the recovered wash is pooled with the exudate. Cell number is determined on a model ZBI Coulter counter. For determination of eicosanoid production, undiluted pleural exudate is microfuged and the supernatant is extracted with ethanol (8-10 times volume). Extracts are either stored at -20° C., or are evaporated to dryness under a stream of N2 and reconstituted in radioimmunoassay (RIA) buffer.
as §2

[3] = molecular target: T1, LTD4 (Cavia porcellus, UniProt Q2NNR5); test: LTD4 antagonist activity in isolated guinea pig trachea; format: cell-based; settings: reference leukotriene antagonists
T1 construct: isolated guinea pig trachea; from tissue; host or cells: guinea pig tracheal rings
T1 sequence (Q2NNR5 1-340): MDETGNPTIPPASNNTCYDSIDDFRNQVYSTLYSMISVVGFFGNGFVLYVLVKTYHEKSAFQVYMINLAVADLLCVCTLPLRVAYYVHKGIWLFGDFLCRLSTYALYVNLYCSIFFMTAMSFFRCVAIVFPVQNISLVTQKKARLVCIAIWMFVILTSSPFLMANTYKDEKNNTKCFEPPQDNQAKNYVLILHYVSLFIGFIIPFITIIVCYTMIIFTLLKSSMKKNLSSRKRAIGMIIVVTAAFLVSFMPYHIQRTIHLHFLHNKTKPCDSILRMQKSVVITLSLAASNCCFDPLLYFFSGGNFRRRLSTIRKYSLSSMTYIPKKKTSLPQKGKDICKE
Description: The LTD4 antagonist activity of the compounds of the invention is assessed in the in vitro isolated guinea pig trachea assay. Male Hartley guinea pigs (350-400 g) are euthanized by a blow to the head, the neck is opened and the trachea removed. The trachea is maintained in aerated physiological salt solution, cleared of connective tissue and fat and cut into rings approximately 2 mm in width (usually containing two cartilaginous segments per ring). Two pieces of silk suture are then passed through the lumen of the tracheal ring and are tied around the cartilage, one on each side of the trachealis muscle. The tracheal ring is suspended between a glass hook and a force displacement transducer in a 10 ml organ bath for measurement of isometric tension. Tissues are maintained at 37° C. in aerated ([…] /5% CO2) physiological salt solution of the following composition: […] The tracheal rings are maintained at 2 g resting tension and equilibrated for 45 minutes (with frequence washing and readjustment of resting tension). The tracheal rings are first contracted by the addition of carbachol (3×10^-6 M), to determine tissue responsiveness and establish a reference contraction. On attainment of a stable level of contraction (approximately 30 minutes), the tissues are washed several times until baseline tension has been restored and the re-equilibrated for 30 minutes. The tissues are then incubated for 45 minutes with a test antagonist (either 1×10^-6 M or 1×10^-5 M) or 10 μl of an appropriate solvent control (control, non-treated). One tissue in each group serves as the control. Twenty minutes prior to the construction of the LTD4 cumulative concentration-response curve, L-[…]×10^-2 M final bath concentration) is added to inhibit bioconversion of LTD4 to LTE4. Only one LTD4 concentration-response curve is constructed in each tissue. All responses to LTD4 in an individual tissue are measured as a percentage of the reference contraction of that tissue to carbachol. LTD4 antagonist activity is determined by comparison of the concentration response curves of LTD4 in the presence and absence of antagonist. Assessment of the relative rightward shift of the antagonist treated curve relative to the solvent (control) treated tissue is calculated as a concentration ratio (Eq. A) and used in subsequent calculations to derive an antagonist pKB value (Eqs. B and C). In the vent that the maximum response to LTD4 is depressed, the EC50 for that particular curve is determined, an "apparent" pKB reported, and the compound reported as "not-competitive." [formula] If a compound is found to be active and/or depress the maximal response to LTD4, then a range of concentrations of the test compound should be used generating multiple concentration ratios which would than be used to perform a Schild analysis, and determination of a pA2 value where appropriate.

[4] = molecular target: T2, 5-lipoxygenase (Rattus norvegicus, UniProt P12527); test: inhibition of 5-HETE synthesis by rat glycogen elicited polymorphonuclear leukocytes; format: cell-based; settings: read-out: % Inhibition of 5-LO (as 5-HETE)
T2 construct: Peritoneal PMN are obtained from female Wistar rats (150-250 g); endogenous in cells; host or cells: rat glycogen-elicited peritoneal polymorphonuclear leukocytes, intact
T2 sequence (P12527 1-673): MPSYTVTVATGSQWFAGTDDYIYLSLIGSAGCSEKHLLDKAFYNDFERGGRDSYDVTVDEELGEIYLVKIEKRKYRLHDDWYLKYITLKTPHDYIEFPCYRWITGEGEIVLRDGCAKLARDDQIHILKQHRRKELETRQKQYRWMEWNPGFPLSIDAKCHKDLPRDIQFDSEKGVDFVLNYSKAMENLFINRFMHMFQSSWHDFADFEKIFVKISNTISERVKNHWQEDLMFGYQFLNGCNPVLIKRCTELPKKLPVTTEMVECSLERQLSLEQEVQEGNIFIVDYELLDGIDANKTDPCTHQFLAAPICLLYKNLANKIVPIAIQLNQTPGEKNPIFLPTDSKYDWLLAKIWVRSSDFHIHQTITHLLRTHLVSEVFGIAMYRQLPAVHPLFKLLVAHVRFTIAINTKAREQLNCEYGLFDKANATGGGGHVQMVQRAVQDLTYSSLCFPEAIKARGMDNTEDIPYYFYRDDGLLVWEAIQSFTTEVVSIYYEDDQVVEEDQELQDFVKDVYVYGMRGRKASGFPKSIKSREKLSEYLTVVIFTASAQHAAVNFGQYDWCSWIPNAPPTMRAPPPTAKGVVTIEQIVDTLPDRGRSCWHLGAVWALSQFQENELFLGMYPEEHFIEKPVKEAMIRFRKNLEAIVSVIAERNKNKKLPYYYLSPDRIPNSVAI
Description: The assay of this Example measures the ability of the compounds of the invention to inhibit the synthesis of 5-HETE by rat glycogen elicited polymorphonuclear leukocytes.
(§3) Peritoneal PMN are obtained from female Wistar rats (150-250 g) that received an i.p. injection of 6% glycogen (10 ml). After 24 hours, rats are killed by CO2 asphysiation and peritoneal cells are harvested by peritoneal lavage using Ca^++ and MG^++ free Hanks' balanced salt solution (HBSS). The peritoneal exudate is centrifuged at 400 g for 10 minutes. After centrifugation, the lavaged fluid is removed and the cell pellet is resuspended in HBSS containing Ca^++ and MG^++ and 10 mM L-cysteine at a concentration of 2×10^7 cells/ml. To 1 ml portions of cell suspension, test drugs or vehicle are added and incubated at 37° C. for 10 minutes. Following this preincubation, the calcium ionophore (10 μM), a23187, is added together with 0.5 μM [14 C] arachidonic acid and further incubated for 10 minutes. The reaction is stopped by the addition of ice cold water (3 ml) and acidifying to pH 3.5. Lipoxygenase products are then extracted twice into diethyl ether. The pooled ether extracts are evaporated to dryness under nitrogen and the residue is redissolved in a small volume of methanol and spotted on aluminum backed pre-coated thin layer chromatographic plates. The samples are then cochromatographed with authentic reference 5-HETE in the solvent system - hexane: ether: acetic acid (50:50:3). After chromatography, the areas associated with 5-HETE standard are identified by autoradiography, cut out and quantitated by liquid scintillation.

[5] = system: cyclooxygenase; test: inhibition of synthesis of cyclooxygenase products TxB2 and PGE2 (rat polymorphonuclear leukocytes); format: cell-based; settings: 10 μM; rat PMN; negative = potentiation of PGE2 synthesis
Description: as §3
However, in order to determine cyclooxygenase activity, the samples are cochromatographed with authentic reference TxB2 and PGE2 in the solvent system ethyl acetate: formic acid (80:1) and the upper phase of ethyl acetate: isooctane: acetic acid: water (110:50:20:100). After chromatography, the areas associated with the TxB2 and PGE2 standards are identified by autoradiography, cut out and quantitated by liquid scintillation techniques.

[6] = 5 min, p.o., 1 hour prior to anti-BSA, read-out: ED50 TxB2
[7] = 10 min, p.o., 1 hour prior to anti-BSA, read-out: ED50 LTB4

Structure (SMILES): NC1=NN(c2cccc(C(F)(F)F)c2)CC1 [BW755C]
ED50 [1, 6]: 18 mg/kg | ED50 [1, 7]: 23 mg/kg | ED30 ([2]; read-out: ED30 Cellular Influx): 28 mg/kg | ED30 ([2]; read-out: ED30 Fluid Exudation): 14 mg/kg

Structure (SMILES): C[C@@H]1C[C@H]2[C@@H]3CCC4=CC(=O)C=C[C@]4(C)[C@@]3(F)[C@@H](O)C[C@]2(C)[C@@]1(O)C(=O)CO [Dexamethasone]
ED30 Fluid Exudation [2]: 0.05 mg/kg | ED30 ([2]; read-out: ED30 Cellular Influx): 0.13 mg/kg

pKB [3]: 7.44 ± 0.12
Structure (SMILES): CCCc1c(OCCCCc2nn[nH]n2)ccc(C(C)=O)c1O [Ly-171,883, reference compound]

Structure (SMILES): O=C1CCN(c2ccccc2)N1 [Phenidone]
ED50 [1, 6]: 69 mg/kg | ED50 [1, 7]: 10 mg/kg | ED30 ([2]; read-out: ED30 Cellular Influx): 23 mg/kg | ED30 ([2]; read-out: ED30 Fluid Exudation): 21 mg/kg

Structure (SMILES): CN1C(C(=O)Nc2ccccn2)=C(O)c2ccccc2S1(=O)=O [Piroxican]
ED30 ([2]; read-out: ED30 Cellular Influx): 3 mg/kg | ED30 ([2]; read-out: ED30 Fluid Exudation): 1 mg/kg

pKB [3]: 6.90 ± 0.23
Structure (SMILES): O=S(=O)(Nc1cccc(OCc2ccc3ccccc3n2)c1)C(F)(F)F [Wy-48,252, reference compound]

Structure (SMILES): COc1ccc2cc([C@H](C)C(=O)O)ccc2c1 [naproxen]
inhibition at 10 µM [4]: -94% | % Inhibition of CO (as PGE2) [5]: 85% | % Inh LTB4 ([1]; 4 mg/kg p.o.): 0% | ED50 TxB2 ([1]; p.o., 1 hour prior to anti-BSA, 5 min): 0.24 mg/kg | % Inh Cellular Influx ([2]; 8 mg/kg p.o.): 29% | ED30 Fluid Exudation [2]: 3.9 mg/kg
